Results from paper PMC4746387, “A Bioactivity-Based Method for Screening, Identification of Lipase Inhibitors, and Clarifying the Effects of Processing Time on Lipase Inhibitory Activity of Polygonum Multiflorum” (Evidence-based Complementary and Alternative Medicine : eCAM, 2016).
Read-outs that look alike come from different tables or passages of the source.

Assays:
[1] = molecular target: T1, lipase (Sus scrofa, UniProt P00591); experiment: Lipase inhibitory activity of enriched UHPLC fractions of P. multiflorum extract and their contribution to total activity (orlistat potency units); format: biochemical; details: for lipase inhibitory effect of fractions of peaks: fractions of P. multiflorum extract enriched for 40 and 60 times, Figure 1; for contribution to the total lipase inhibitory activity: potency of individual fraction/total lipase inhibitory × 100%, orlistat equivalent potency units
T1 construct: purchased Solar Bio Science Co. Ltd. (Beijing, China) L3126
T1 sequence (P00591 1-450): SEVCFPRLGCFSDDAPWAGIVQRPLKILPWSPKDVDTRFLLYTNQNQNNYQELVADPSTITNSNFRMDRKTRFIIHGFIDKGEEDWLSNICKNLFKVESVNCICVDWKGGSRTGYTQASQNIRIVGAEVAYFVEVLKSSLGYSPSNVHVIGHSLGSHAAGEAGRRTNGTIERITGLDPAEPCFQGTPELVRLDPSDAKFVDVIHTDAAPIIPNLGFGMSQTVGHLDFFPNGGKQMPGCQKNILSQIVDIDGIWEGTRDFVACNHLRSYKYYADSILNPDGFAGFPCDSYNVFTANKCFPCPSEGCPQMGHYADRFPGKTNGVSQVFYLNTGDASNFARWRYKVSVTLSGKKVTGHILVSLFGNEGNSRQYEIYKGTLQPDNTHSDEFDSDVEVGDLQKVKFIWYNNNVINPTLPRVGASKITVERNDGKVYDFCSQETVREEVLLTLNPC
Description: When the P. multiflorum extract was injected into the UHPLC system, the fraction collector (BSZ-100, Shanghai QingpuHuxi Instrument, Shanghai, China) was used for the fraction collection by setting the time interval at 20 s. Then, the fractions were collected and evaporated to dryness by nitrogen gas. The residues were reconstituted and diluted for bioassays.
(§1) The assay of lipase was performed according to previous method with slight modifications. 25 μL test samples and 25 μL lipase solution were mixed together. Then, 50 μL 4-methylumbelliferyl oleate was added to the mixture. After incubating at 25°C for 20 min, 100 μL sodium citrate (0.1 M, pH 4.2) was added to stop the reaction. Finally, the amount of 4-methylumbelliferone released by lipase was measured by microplate reader at an excitation wavelength of 355 nm and an emission wavelength of 460 nm. The inhibitory activity was calculated by the formula: inhibition (%) = [1 − (A sample/A control)] × 100, where A sample and A control were absorbance of the test sample and the control, respectively.
The extract was injected in UHPLC for the separation of the components and all fractions were collected for the bioassays. The lipase inhibitory effect was expressed as inhibition ratio (%), which could be calculated by the above mentioned formula. The time interval of fraction collector was set at 20 s according to the resolution and peak shape in the chromatogram. […] The fractions from the same peak were combined.
The potency calibration curve was constructed by plotting the potency (y) against the corresponding inhibition ratio (x). […] Then, the potency of the enriched fractions was determined by the curve mentioned above. […] The contribution of individual fractions was calculated by the formula: contribution (%) = potency of individual fraction/the total lipase inhibitory × 100%.

[2] = molecular target: T1, lipase; experiment: Assay for lipase inhibitory activity (4-methylumbelliferyl oleate substrate, fluorescence of 4-methylumbelliferone); format: biochemical; details: for lipase inhibition ratio: at the concentration of 1.0 mg/mL; for IC50: reference standards (purity > 98%), eight diluted concentrations, 25°C, 20 min
Description: 4-Methylumbelliferyl oleate (4.406 mg) was accurately weighed and dissolved by Tris-HCl solution (pH 8.0, 1.3 mM NaCl, and 1.3 mM CaCl2) with the final concentration of 0.1 mM. 100 mg lipase was dissolved with deionized water and the insoluble substances were removed by centrifugation at 14,000 rpm for 10 min. Finally, the concentration of enzyme solution was 1.0 mg/mL.
Gallic acid, catechin, epicatechin, polydatin, 2,3,5,4′-tetrahydroxystilbene-2-O-β-D-glucoside, resveratrol, emodin-8-O-glucoside, physcion-8-O-glucoside, rhein, emodin, and physcion with the concentration of 1.0 mg/mL were prepared in methanol for quality control. Rhein, emodin, and physcion were dissolved in DMSO (Dimethyl Sulfoxide) with suitable concentrations. The reference standards solution was diluted serially with 10% methanol for the bioassays. The concentrations of DMSO in a series of samples at different concentrations were less than 0.1% (v/v). […] It was prepared with 10% methanol and diluted to a series of different concentrations.
as §1
In the bioassay experiments, all the analysis was carried out in triplicate. All values were expressed in the form of mean ± standard deviation (SD); IC50 values were determined by Graph Pad Prism 5 software.

[3] = read-out: IC50 (μg/mL) (converted)

Structure (SMILES)	lipase inhibitory effect of fractions of peaks [1]	lipase inhibition ratio [2] [%]	contribution to the total lipase inhibitory activity [1]	IC50 [2] [µg/mL]	IC50 [2, 3] [µM]
O.Oc1cc(O)c2c(c1)O[C@H](c1ccc(O)c(O)c1)[C@@H](O)C2 [Catechin]	relatively weak inhibitory effect	≤ 50	–	–	–
OC[C@H]1O[C@@H](Oc2cc(O)cc(/C=C/c3ccc(O)cc3)c2)[C@H](O)[C@@H](O)[C@@H]1O [Polydatin]	relatively weak inhibitory effect	–	–	–	–
Cc1cc(O[C@@H]2O[C@H](CO)[C@@H](O)[C@H](O)[C@H]2O)c2c(c1)C(=O)c1cc(O)cc(O)c1C2=O [Emodin-8-O-glucoside]	strong inhibition	–	less than 10%	296.0	–
COc1cc(O)c2c(c1)C(=O)c1cc(C)cc(O)c1C2=O [Physcion]	strong inhibition	–	less than 10%	–	2860
Oc1cc(O)c2c(c1)O[C@H](c1ccc(O)c(O)c1)[C@H](O)C2 [Epicatechin]	relatively weak inhibitory effect	≤ 50	–	–	–
COc1cc(O)c2c(c1)C(=O)c1cc(C)cc(OC3OC(CO)C(O)C(O)C3O)c1C2=O (stereo not shown) [Physcion-8-O-glucoside]	strong inhibition	–	–	421.5	–
O=C(O)c1cc(O)c2c(c1)C(=O)c1cccc(O)c1C2=O [Rhein]	strong inhibition	–	–	–	813
Oc1ccc(/C=C/c2cc(O)cc(O)c2)cc1 [Resveratrol]	strong inhibition	–	–	–	2470
O=C(O)c1cc(O)c(O)c(O)c1 [Gallic acid]	relatively weak inhibitory effect	≤ 50	–	–	–
Cc1cc(O)c2c(c1)C(=O)c1cc(O)cc(O)c1C2=O [Emodin]	strong inhibition	–	less than 10%	–	1290
